Reference: a melting point compilation (Tetko et al.; mined from patent text by program, amines drawn as free bases though some values may be those of a salt)

`N#Cc1ccc(N2CCC(=O)CC2)cc1` showed a melting point of 100 to 101 °C. Molecule `O=C1NC(=O)C2(CCOC2)N1` (stereo unspecified) has a melting point of 202 to 204 °C. Molecule `CC(=O)N1CCC2(CC1)Cc1cc([N+](=O)[O-])ccc1O2` has a melting point of 149 to 150 °C. Work on `COc1ccc(OC)c2c1ccn2Cc1ccc(Cl)cc1` yielded a melting point of 62 to 63 °C. `COc1ccccc1NC(=O)c1sccc1S(=O)(=O)Nc1onc(C)c1Br` showed a melting point of 74 to 80 °C. `CCN(CC)CCOc1ccc(Nc2ncc3c(n2)N(C)C(=O)N(C)C3)cc1` showed a melting point of 186 °C. `CCc1oc2ccc(Cl)cc2c1C(=O)c1cc(Br)c(O)c(Br)c1` showed a melting point of 126 to 128 °C. `O=C(NNc1ccccc1)c1ccccc1O` showed a melting point of 259 °C. Molecule `CCCn1nc(C(C)C)c(C(N)=O)c1Cc1ccc(-c2ccccc2-c2nnn[nH]2)cc1` has a melting point of 156 to 159 °C. With `COC(=O)c1ccc2c(c1)C(=O)C1(CC1)O2` the melting point was 89 to 91 °C. For `OCc1cn(-c2ccccc2)nc1OCc1ccccc1`, the melting point was 93 to 94 °C. For `CCCOc1nc2sccc2c(=N)n1CCC`, the melting point was 61 to 63 °C. `Cc1ccc(Sc2ccccc2)c(CC(=O)O)c1` gave a melting point of 83 to 84 °C. `CCCCSC(Cn1cncn1)c1ccc(Cl)cc1Cl` (stereo unspecified) gave a melting point of 143 °C. With `Cc1nc(-c2ccccc2)nc(-c2cccc([N+](=O)[O-])c2)c1C(=O)NCN1CCN(C)CC1` the melting point was 129 to 131 °C. For `Clc1cccnc1N1CCN(c2nc3ccc(Br)cc3[nH]2)CC1`, the melting point was 207 to 208 °C. For `COc1cc(CN2CCc3cc(OCc4ccccc4)c(OC)cc3C2=O)cc(OC)c1`, the melting point was 82 to 83 °C. For `COc1ccc(-c2nc3cc(Cl)cc(C#CCN(OC(=O)OC(C)(C)C)C(=O)OC(C)(C)C)c3o2)cc1OC1CCCC1`, the melting point was 144 to 146 °C. `O=CCCc1ccc2oc(Cc3ccc4ccccc4c3)nc2c1` gave a melting point of 81 to 82 °C. In the case of `CCc1cc2c(cc1Cl)=CCc1cccnc1C=2C1CCN(C(=O)Cc2cccnc2)CC1`, the melting point is reported as 67.2 to 69.8 °C. Work on `CCCCc1nc2c([nH]c(=O)c3ccccc32)s1` yielded a melting point of 172 to 173 °C. For `COc1cc(Nc2c(C#N)cnc3cc(NCCCC4CCN(C)CC4)c(OC)cc23)c(Cl)cc1Cl`, the melting point was 122 to 124 °C. `CC(C)(Cc1cc([N+](=O)[O-])c(F)cc1Cl)C(=O)O` showed a melting point of 102 to 104 °C. In the case of `Cc1c(Br)nc(Br)c(=O)n1C`, the melting point is reported as 119 to 120 °C. `CCCCN1C(N)=NS(=O)(=O)N=C1Oc1cccc(C)c1` gave a melting point of 208 to 213 °C. `Cc1c(O)cc(N2C(=O)c3ccccc3C2=O)cc1C(=O)O` showed a melting point greater than 250 °C. In the case of `CCCN(CCC)C(=O)CCn1c(-c2ccc(Cl)cc2)nc2cccnc21`, the melting point is reported as 104 to 106 °C. Molecule `C=CCOC(=O)COC(=O)c1c(Br)c(Br)c(C(=O)OCC(=O)OCC=C)c(Br)c1Br` has a melting point of 146 to 148 °C. `CS(=O)(=O)c1ccc(C(CC2CCCC2)C(=O)Nc2ccccn2)cc1[N+](=O)[O-]` (stereo unspecified) showed a melting point of 92 to 95 °C. For `O=C(NCc1ccc(F)cc1)Nc1ccc(CN2C(=O)[C@H]3CCC[C@H]3N(C(=O)CCl)c3ccccc32)cc1` (relative stereo), the melting point was 202 to 203 °C. In the case of `COc1cc2c(CC#N)c[nH]c2cc1F`, the melting point is reported as 97 to 98 °C. In the case of `CCNc1cc(C(=O)O)cc(S(N)(=O)=O)c1Oc1ccccc1`, the melting point is reported as 236 to 237 °C. In the case of `CCCS(=S)c1cccc(OS(C)(=O)=O)n1` (stereo unspecified), the melting point is reported as 51 to 53 °C. For `CC(C)CCCC(C)CCCC(C)CCCC(C)CCP(=O)(O)O` (stereo unspecified), the melting point was 69 to 72 °C. In the case of `Cc1nc(-c2cccc(C(=O)c3ccccc3)c2)sc1C(=O)O`, the melting point is reported as 213 to 215 °C. Work on `O=C1OC2(CC(c3ccc(F)cc3)=NO2)c2ccccc21` (stereo unspecified) yielded a melting point of 142 to 145 °C. `O=C(O)c1ccc(C(F)(F)F)cc1[N+](=O)[O-]` gave a melting point of 136 to 138 °C. `CC(Cl)c1nc2cccnc2[nH]1` (stereo unspecified) showed a melting point of 132 °C. For `NC(=O)c1c(-c2ccc(F)cc2)cc2c3c1ccn3C(=O)CNC2`, the melting point was 287 to 289 °C. In the case of `O=c1[nH]c2ccsc2c(=O)n1CCN1CCN(c2ccccc2Cl)CC1`, the melting point is reported as 193 to 196 °C. For `CC(C)c1cccc(C(C)C)c1NC(=O)C1CCCC(Cc2ccccn2)(Cc2ccccn2)C1=O` (stereo unspecified), the melting point was 70 to 73 °C. For `CCCc1ccc(-c2ccc(C(=O)N3Cc4cccn4Cc4ccccc43)cc2)cc1`, the melting point was 118 to 120 °C. `Nc1cc(CCC(=O)NC2CCc3ccccc32)ccc1O` (stereo unspecified) showed a melting point of 130 to 131 °C. With `O=C(c1ccc2[nH]c(=O)n(Cc3ccc(F)cc3)c(=O)c2c1)c1nc(Br)c2ccccn12` the melting point was 325 °C. Work on `C/C=C/c1ccc2c(NCc3ccc(NC(=O)c4ccc(Cl)nc4)cc3)nc(N(C)C)nc2c1` yielded a melting point of 185 °C. With `CCCCS(=O)(=O)NC(=O)CCc1cc(OC(C)C)nn1Cc1ccc(Cl)cc1Cl` the melting point was 133 to 134 °C. In the case of `Cc1sc(C(N)=O)c2c1-c1nn(Cc3ccccc3)cc1CC2`, the melting point is reported as 182 to 183 °C. With `COc1ccc(C(C=NO)C(C)C)cc1OC` (stereo unspecified) the melting point was 89 °C. For `Nc1ccccc1Nc1ccccn1`, the melting point was 124 to 125 °C. Work on `CCCCc1nn(-c2cc([N+](=O)[O-])ccc2Br)c(=O)n1Cc1ccc(-c2ccccc2S(=O)(=O)NC(C)(C)C)cc1F` yielded a melting point of 137 to 139 °C. Molecule `CCc1nn2c(Cl)cc(Cl)nc2c1S(=O)(=O)c1ccccc1` has a melting point of 166 to 167 °C. `Cc1c(CC(=O)O)c2cc(O)c(F)cc2n1C(=O)c1ccccc1` gave a melting point of 159 to 161 °C. In the case of `COc1ccc2[nH]c(=O)c3cccn3c2n1`, the melting point is reported as 250 °C. `O=C(O)c1ccccc1C(=O)N1CCN(c2cc3c(cc2F)c(=O)c(C(=O)O)c2sccn23)CC1` gave a melting point of 277 to 278 °C. In the case of `O=C(Nc1cccc2cc(Cn3ccnc3)cnc12)c1c(Cl)cccc1Cl`, the melting point is reported as 177 to 179 °C. In the case of `FC(F)(F)c1cc(Nc2ccc3[nH]ccc3c2)nc(-c2cccnc2)n1`, the melting point is reported as 142 to 143 °C. Molecule `COc1cc2c(Nc3ccc(Oc4ccccc4OC)cc3)c(C#N)cnc2cc1F` has a melting point of 146 to 150 °C. `COc1cc2cc(C(=O)CCC(=O)O)sc2cc1OC` gave a melting point of 177 to 178 °C. With `O=C(c1cccnc1)c1cccc([N+](=O)[O-])c1` the melting point was 73 to 76 °C. Work on `C#Cc1cccc(Nc2ncnc3ccc(S(=O)(=O)n4ccc(C=CC(=O)Nc5ccccc5N)c4)cc23)c1` yielded a melting point of 150 to 153 °C. Work on `CC(C)c1n[nH]c(=O)n1N` yielded a melting point of 172 °C. With `CC12CCC(OS(=O)(=O)C(F)(F)F)=CC1=CCC1C2CCC2(C)C(C(=O)O)CCC12` (stereo unspecified) the melting point was 140 to 150 °C. `COC(=O)c1ccc2c(c(C)nn2C)c1C(=O)NC(C)(C(N)=O)C(C)C` (stereo unspecified) gave a melting point of 221 to 222 °C. Molecule `CNc1nc(-c2cccc(-c3cncc(SC)c3)c2)c2cc(OC)c(OC)cc2n1` has a melting point of 184 to 186 °C. Work on `COc1ccc(C(=O)N2CSCC2=O)cc1` yielded a melting point of 123 to 124 °C. `CCCC12CCC(=O)C=C1c1c(cc(OC)c(Cl)c1Cl)C2O` (stereo unspecified) gave a melting point of 173 to 175 °C. In the case of `COc1cc(C(=O)N(C(C)C)C(C)C)ccc1OCCCCCOc1ccc(C=NN)cc1`, the melting point is reported as 112 to 114 °C. `O=Cc1cnc(Cl)c(Cl)c1` showed a melting point of 65 °C. `Cc1cc(OCc2sc(-c3ccc(C(F)(F)F)cc3)nc2C)ccc1/C=C/C(=O)O` showed a melting point of 200 to 203 °C. Molecule `N#CN=c1ccccn1Cc1ccccc1` has a melting point of 139 to 140 °C. In the case of `N#Cc1ccc(S(=O)(=O)Nc2ccc(Br)c3cc[nH]c23)cc1`, the melting point is reported as 214 to 216 °C. `CN1[C@H]2CC[C@@H]1[C@H](c1nc(-c3ccncc3)no1)[C@@H](c1ccc3c(c1)OCO3)C2` showed a melting point of 110 to 112 °C. With `CC(C)=C(C(=O)O)c1ccc(F)cc1` the melting point was 124 to 126 °C. For `Cc1cc(C(N)=O)ncc1C(c1c(F)ccc(F)c1F)S(=O)(=O)CC1CC(F)(F)C1` (stereo unspecified), the melting point was 205 to 207 °C. `CCNC(=O)c1cccc(F)c1Nc1nc(Nc2cc3c(cc2OC)CCN(CC(=O)N(C)C)CC3)ncc1Cl` gave a melting point of 95 to 105 °C. In the case of `CCOC(=O)C(C(=O)Cc1cc(OC(C)C)c(Cl)cc1F)=C(N)C(F)(F)F`, the melting point is reported as 58 to 59 °C. Molecule `CN(Cc1cc2c(=O)c(C(=O)NCc3ccc(Cl)cc3)cn(C)c2o1)CC(O)c1nccs1` (stereo unspecified) has a melting point of 114 to 116 °C. Molecule `COC(=O)c1c(C)noc1C(=O)NC(C)C` has a melting point of 64 to 66 °C. `O=C(O)C=CC(=O)c1cc(Cl)c(Cl)cc1Cl` gave a melting point of 177 to 181 °C. In the case of `Cc1ccc(CN(c2ccccc2CC(=O)O)c2c(Cl)cccc2Cl)cc1`, the melting point is reported as 154 to 158 °C. `Fc1cccc(F)c1-c1nnc(-c2ccccc2Br)nn1` gave a melting point of 168 °C. `CN(Cc1ccccc1)C(=O)CCC(=O)c1ccc(Cl)c(S(N)(=O)=O)c1` showed a melting point of 162 °C. Molecule `CC(C)(C)c1ccc(C2OCC(CO)(NC(=O)c3c(Cl)cccc3Cl)CO2)cc1` (stereo unspecified) has a melting point of 178 to 180 °C. Molecule `CS(=O)c1nnc2c(=O)c3ccccc3ccn12` (stereo unspecified) has a melting point of 208 to 211 °C. Work on `COC(=O)c1cc(C)cnc1Cl` yielded a melting point of 31 to 33 °C. Work on `COc1ccc(C=Nc2ccc(SC)cc2)cc1` yielded a melting point of 183 to 184 °C. In the case of `COCc1nnc(-c2ccc3occ(-c4cccc(OC(F)(F)F)c4)c3c2)o1`, the melting point is reported as 90 to 91 °C. With `CC(C)(C)C1=C(c2ccc(C(=O)N3CCOCC3)c(O)c2)OCC1(C)C` the melting point was 141 to 142 °C. Molecule `COc1ccc(C(=O)Nc2ccccc2)c(C(=O)Cc2ccccn2)c1` has a melting point of 145 to 148 °C. Molecule `Cc1ccc(S(=O)(=O)N2CCCC2c2nnnn2[C@@](C)(Cc2ccc([N+](=O)[O-])cc2)C(=O)O)cc1` (stereo partly specified) has a melting point of 150 to 160 °C. Work on `CCCCCCCCCCCCC#CC(O)(CCCCC(=O)O)CCCCC(=O)O` yielded a melting point of 65 to 66 °C. `COc1ccc(C)c(NC(=O)CC2C3CC4CC(C3)CC2C4)c1` (stereo unspecified) showed a melting point of 193 to 196 °C. For `COc1ccc(-c2cc(N3CCCCC3)c(C#N)c3c2-c2ccccc2C3=O)cc1`, the melting point was 210 to 212 °C. In the case of `C#Cc1cncc(C2CCC(=O)N2C)c1` (stereo unspecified), the melting point is reported as 83 to 84 °C. `COc1cc(C(=O)CCC(=O)c2cc(OC)c(OC)c(OC)c2)cc(I)c1O` gave a melting point of 189 to 190 °C. `C[C@]12CC[C@H](O)CC1=CCC1C2CC[C@@]2(C)C1CC[C@@H]2c1cn(Cc2ccccc2)nn1` (stereo partly specified) showed a melting point of 286 to 287 °C. For `CCN(CC)C(=O)n1cnc(S(=O)(=O)CC2CCCCCC2)n1`, the melting point was 46 to 51 °C. Work on `CCOC(=O)N1CCN(C(C#N)c2ccc(OC)c(OC)c2OC)CC1` (stereo unspecified) yielded a melting point of 138 to 139 °C. `CS(=O)(=O)c1ccc(-c2sc(-c3ccccc3Cl)nc2-c2ccc(F)cc2F)cc1` showed a melting point of 166 to 169 °C. With `CCOC(=O)c1c(Cl)nc2cc(Cl)c(F)cc2c1CCl` the melting point was greater than 250 °C. `N#Cc1c(SCCl)nsc1SCCl` showed a melting point of 92 to 93 °C.
